Patent publication US20240108641A1, “COMPOSITIONS FOR ORAL ADMINISTRATION OF ZOLEDRONIC ACID OR RELATED COMPOUNDS FOR TREATING DISEASE” (ANTECIP BIOVENTURES II LLC, priority 2012, published 2024)

Tests used:
[1] = type: physicochemical; details: pH 5.5
Experimental: One gram of the test compound was measured into a beaker. […] The procedure was continued until complete dissolution was achieved. […] The procedure was performed for each compound.

[2] = in vivo; details: dog, po, 150 mg
Experimental: Tablets were manufactured containing either pure zoledronic acid or the disodium salt of zoledronic acid (disodium zoledronate tetrahydrate). Both types of tablets contained 50 mg of zoledronic acid equivalent per tablet. Identical excipients were used in both types of tablets, with amounts adjusted to account for the difference in molecular weights between the acid and the disodium salt.
Beagle dogs were orally administered tablets containing 150 mg zoledronic acid equivalent either in the form of disodium zoledronate (Group 1) or pure zoledronic acid (Group 2). Each animal was given three 50 mg equivalent tablets (150 mg total), which were administered together. The animal's oral cavity was wetted with water before placing the tablets on the back of the animal's tongue. Animals were fasted before and after dosing. Animals were 6 to 9 months of age and weighed 6 to 10 kg on the day of dosing. There were three dogs per group.
Serial blood samples were collected from each animal by venipuncture of the jugular vein at various points after dosing for measurement of plasma concentrations of zoledronic acid. Blood samples were collected into chilled tubes containing K2EDTA as the anticoagulant. Samples were then centrifuged at approximately 3000 rpm at +4° C. for 10 minutes for plasma derivation. Plasma concentrations of zoledronic acid were measured using an LC/MS/MS method.

With O.O.O.O.O=P([O-])(O)C(O)(Cn1ccnc1)P(=O)([O-])O.[Na+].[Na+] [disodium zoledronate tetrahydrate] the “aqueous solubility relative to zoledronic acid” value [1] was “approximately 50 times” and the “average AUC0-∞” value [2] was 4073 ng·h/mL.
